The values that follow come from patent publication US20110217265A1, “Screening for Inhibitors of HCV Amphipathic Helix (AH) Function” (priority 2008, published 2011).

Molecules are shown by their SMILES.

One series concerns the target hERG (Homo sapiens, UniProt Q12809). Briefly: hERG IC50. A general note: The hERG channel carries a current that helps repolarise heart muscle cells.
In the next series the test system is Huh7.5 cells. Briefly: Alamar Blue cell viability assay. The series is classed as cell-based, human. The method, then:
Antiviral Assays of Compounds. Subconfluent Huh7.5 cells were trypsinized and collected by centrifugation at 700 g for 5 min. The cells were then washed three times in ice-cold RNasefree PBS buffer (BioWhittaker) and resuspended at 1.5×10^7 cells·ml^−1 in PBS buffer. Wild-type FL-J6/JFH-5′C19Rluc2AUbi and Bart79I-luc RNAs for electroporation were generated by in vitro transcription of XbaI (FL-J6/JFH-5′C19Rluc2AUbi) and ScaI (Bart791-luc)-linearized DNA templates using the T7 MEGAscript kit (Ambion), followed by phenol-chloroform purification and DEPC water suspension, 5 μg of RNA were mixed with 400 μl of washed Huh7.5 cells in a 2-mm-gap cuvette (BTX) and immediately pulsed (0.82 kV (FL-J6/JFH-5′C19Rluc2AUbi) and 0.68 kV (Bart79I-luc), five […] pulses) with a BTX-830 electroporator. After 10 min recovery at 25° C., pulsed cells were diluted into 20 ml of pre-warmed growth medium. Cells from several electroporations were pooled to a common stock and seeded in 96-well plates (17,000-20,000 cells per well). After 24 hr, compounds were added to the cells and media changes were performed daily with fresh compounds. After 72 hr of treatment, cells were incubated for 2 hr at 37° C. in the presence of 10% Alamar Blue reagent (TREK Diagnostic Systems) to assess for cytotoxicity. […] The signal was normalized relative to untreated samples. Viral RNA replication was determined using Renilla (FL-J6/JFH-5′C19Rluc2AUbi) or firefly (Bart791-luc) luciferase assays, according to the manufacturer's (Promega) directions. The same samples subjected to the viability assay described below were analyzed in this assay. According to the manufacturer protocol, cells were washed with PBS buffer and shaken at room temperature for 15 min in 20 μl of lysis buffer. Reporter assays were performed directly in the wells of the culture plates by injecting 100 μl of the assay substrate into each well. Luminescence was measured over 10 seconds with a 2-second delay using a Berthold LB 96 V luminometer. Signal was normalized relative to untreated samples or samples grown in the presence of the corresponding concentration of DMSO. Experiments were repeated three times, each time with 4 replicates.
A general note: Resazurin is reduced to fluorescent resorufin, in cell work by metabolically active cells.

A further series has as its system 2a HCV RNA replicon. Briefly: 2a HCV RNA replicon assay (FL-J6/JFH-5'C19Rluc2AUbi, luciferase). Format: cell-based, Hepatitis C Virus genotype 2a. The settings on record: Hepatitis C virus, read-out: 2a (%) Percent of virus activity remaining in the presence of the compound. An excerpt:
Plasmids. Bart79I, a high-efficiency subgenomic replicon of HCV (28), harbors the neomycin resistance gene (neo) and the HCV nonstructural proteins. The Bart-Luciferase plasmid, Bart79I-luc, was cloned from the Bart791 parent (29) and the pGL3-Basic parent (Promega). In brief, a NotI site was introduced after the 15th amino acid of Core in Bart791 using PCR mutagenesis. The plasmid pcDNA3.1-NS4B, which encodes the Con1 NS4B sequence and was used to study the protein stability of the wild type and mutant NS4Bs, was described previously. To introduce the M2 mutation into the 4BAH2 of plasmids encoding HCV replicons or NS4B, the nucleotide sequence GCG that encodes for alanine at NS4B amino acid position 51 was changed to GAG (encoding for glutamate) and the nucleotide sequence TGG that encodes for tryptophan at amino acid position 55 was changed to GAT (encoding for aspartate) through the use of Quick-ChangeTMXL site-directed mutagenesis kit (Stratagene, La Jolla, Calif.) as described by the manufacturer and confirmed by sequencing. FL-J6/JFH-5′C19Rluc2AUbi, which is a monocistronic, full-length HCV genome that expresses Renilla luciferase (Rluc) and was derived from the previously described infectious genotype 2a HCV genome J6/JFH1.
Antiviral Assays of Compounds. Subconfluent Huh7.5 cells were trypsinized and collected by centrifugation at 700 g for 5 min. The cells were then washed three times in ice-cold RNasefree PBS buffer (BioWhittaker) and resuspended at 1.5×10^7 cells·ml^−1 in PBS buffer. Wild-type FL-J6/JFH-5′C19Rluc2AUbi and Bart79I-luc RNAs for electroporation were generated by in vitro transcription of XbaI (FL-J6/JFH-5′C19Rluc2AUbi) and ScaI (Bart791-luc)-linearized DNA templates using the T7 MEGAscript kit (Ambion), followed by phenol-chloroform purification and DEPC water suspension, 5 μg of RNA were mixed with 400 μl of washed Huh7.5 cells in a 2-mm-gap cuvette (BTX) and immediately pulsed (0.82 kV (FL-J6/JFH-5′C19Rluc2AUbi) and 0.68 kV (Bart79I-luc), five […] pulses) with a BTX-830 electroporator. After 10 min recovery at 25° C., pulsed cells were diluted into 20 ml of pre-warmed growth medium. Cells from several electroporations were pooled to a common stock and seeded in 96-well plates (17,000-20,000 cells per well). After 24 hr, compounds were added to the cells and media changes were performed daily with fresh compounds. After 72 hr of treatment, cells were incubated for 2 hr at 37° C. in the presence of 10% Alamar Blue reagent (TREK Diagnostic Systems) to assess for cytotoxicity. Plates were then scanned and fluorescence was detected by using a FLEXstation II 384 (Molecular Devices). The signal was normalized relative to untreated samples. Viral RNA replication was determined using Renilla (FL-J6/JFH-5′C19Rluc2AUbi) or firefly (Bart791-luc) luciferase assays, according to the manufacturer's (Promega) directions. The same samples subjected to the viability assay described below were analyzed in this assay. According to the manufacturer protocol, cells were washed with PBS buffer and shaken at room temperature for 15 min in 20 μl of lysis buffer. Reporter assays were performed directly in the wells of the culture plates by injecting 100 μl of the assay substrate into each well. Luminescence was measured over 10 seconds with a 2-second delay using a Berthold LB 96 V luminometer. Signal was normalized relative to untreated samples or samples grown in the presence of the corresponding concentration of DMSO. Experiments were repeated three times, each time with 4 replicates.
In general terms: Replicon systems follow genome replication, usually without infectious particles.

The test system of another series is HCV 1b RNA replicon. The series can be described thus: 1b HCV RNA replicon assay, Huh7 cell line with stable luciferase reporter. Format: cell-based, Hepatitis C Virus genotype 1b. As to conditions: Huh7, stable LUC reporter; for IC50: Hepatitis C virus, Huh-7.

hERG, sequence (Q12809 whole entry): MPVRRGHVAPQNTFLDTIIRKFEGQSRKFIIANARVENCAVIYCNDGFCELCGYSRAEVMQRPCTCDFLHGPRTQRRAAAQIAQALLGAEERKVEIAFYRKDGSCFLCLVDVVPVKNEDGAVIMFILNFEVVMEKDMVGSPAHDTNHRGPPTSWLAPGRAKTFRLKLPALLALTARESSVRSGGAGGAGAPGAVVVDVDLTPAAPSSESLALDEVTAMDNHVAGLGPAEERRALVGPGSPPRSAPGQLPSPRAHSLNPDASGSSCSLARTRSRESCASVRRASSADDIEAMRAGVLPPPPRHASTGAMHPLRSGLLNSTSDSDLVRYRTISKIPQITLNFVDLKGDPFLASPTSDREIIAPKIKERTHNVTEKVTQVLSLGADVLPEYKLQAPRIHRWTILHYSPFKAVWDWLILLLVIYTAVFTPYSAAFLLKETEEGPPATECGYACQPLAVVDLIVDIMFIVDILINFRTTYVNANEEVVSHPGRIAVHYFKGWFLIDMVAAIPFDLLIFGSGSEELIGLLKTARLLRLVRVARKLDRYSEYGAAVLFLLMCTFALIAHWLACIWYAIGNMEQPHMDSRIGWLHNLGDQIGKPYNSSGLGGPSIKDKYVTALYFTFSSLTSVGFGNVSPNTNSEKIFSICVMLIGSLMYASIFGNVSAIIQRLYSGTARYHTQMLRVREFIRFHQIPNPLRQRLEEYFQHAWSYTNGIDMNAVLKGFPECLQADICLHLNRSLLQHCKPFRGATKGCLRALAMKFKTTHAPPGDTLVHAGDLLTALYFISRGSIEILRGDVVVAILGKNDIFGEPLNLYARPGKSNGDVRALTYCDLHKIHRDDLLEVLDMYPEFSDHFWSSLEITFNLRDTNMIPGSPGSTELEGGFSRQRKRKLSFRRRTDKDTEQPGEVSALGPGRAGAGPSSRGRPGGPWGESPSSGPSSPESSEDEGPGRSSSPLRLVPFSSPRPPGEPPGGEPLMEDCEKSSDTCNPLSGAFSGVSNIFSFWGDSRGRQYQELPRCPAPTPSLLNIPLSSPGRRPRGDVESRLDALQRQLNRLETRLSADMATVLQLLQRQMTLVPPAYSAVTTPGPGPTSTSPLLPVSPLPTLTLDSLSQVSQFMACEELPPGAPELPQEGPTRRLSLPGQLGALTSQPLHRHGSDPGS

Usually IC50 stands for the concentration at which inhibition is half-maximal. A low value points to greater potency in that assay. Compound `CC(C)CN(C)c1nc(N)c(C(=O)Nc2cccnc2)nc1Cl.Cl` [ID 202, 3-amino-6-chloro-5-(isobutyl(methyl)amino)-N-(pyridin-3-yl)pyrazine-2-carboxamide hydrochloride] gave a half-maximal inhibitory concentration (IC50) at hERG of 1.5 µM. The “Cell Viability (%), alamar blue” value in the series on Huh7.5 cells (5 μM) worked out at 48%. The “Cell Viability (%), alamar blue” value in the series on Huh7.5 cells (10 μM) was determined as 43%. Moreover, in the series on 2a HCV RNA replicon, the activity at 5 µM was 6% and the activity at 10 µM is 4%.

Regarding `CC(C)CN(C)c1nc(N)c(C(=O)NC2CCCNC2)nc1Cl.O=C(O)C(F)(F)F` (stereo not shown) [ID 312, 3-amino-6-chloro-5-(isobutyl(methyl)amino)-N-(piperidin-3-yl)pyrazine-2-carboxamide 2,2,2-trifluoroacetate], the values for the IC50 at hERG and in the series on HCV 1b RNA replicon were 4 µM and 44 µM, respectively. Further, the “Cell Viability (%), alamar blue” value in the series with Huh7.5 cells (5 μM) turned out to be 76%; with Huh7.5 cells (10 μM), 53%. In addition, the activity at 5 µM with 2a HCV RNA replicon worked out at 21%. The activity at 10 µM in the series on 2a HCV RNA replicon was 9%.

`CC(C)CN(C)c1nc(N)c(C(=O)NC2CCNCC2)nc1Cl.O=C(O)C(F)(F)F` [ID 319, 3-amino-6-chloro-5-(isobutyl(methyl)amino)-N-(piperidin-4-yl)pyrazine-2-carboxamide 2,2,2-trifluoroacetate]: the figures for the “Cell Viability (%), alamar blue” value in the series with Huh7.5 cells (5 μM) and in the series with Huh7.5 cells (10 μM) were 87% and 75%, respectively. In the series with 2a HCV RNA replicon, the activity at 5 µM was determined as 37%. Moreover, the activity at 10 µM in the series on 2a HCV RNA replicon came out at 11%. In addition, inhibition with HCV 1b RNA replicon was half-maximal at 6.9 µM (IC50).

Turning to `CC(C)CN(C)c1nc(N)c(C(=O)NCC2CCCCC2)nc1Cl.O=C(O)C(F)(F)F` [ID 320, 3-amino-6-chloro-N-(cyclohexylmethyl)-5-(isobutyl(methyl)amino)pyrazine-2-carboxamide 2,2,2-trifluoroacetate], the “Cell Viability (%), alamar blue” value in the series with Huh7.5 cells (5 μM) is reported as 80%. The “Cell Viability (%), alamar blue” value in the series on Huh7.5 cells (10 μM) is given as 59%. In the series on 2a HCV RNA replicon, the activity at 5 µM worked out at 37% and the activity at 10 µM came out at 17%. The “1b assay IC50” value with HCV 1b RNA replicon was “inactive”.

Regarding `CC(C)CN(C)c1nc(N)c(C(=O)NCc2cccnc2)nc1Cl.O=C(O)C(F)(F)F` [ID 341, 3-amino-6-chloro-5-(isobutyl(methyl)amino)-N-(pyridin-3-ylmethyl)pyrazine-2-carboxamide 2,2,2-trifluoroacetate], the “Cell Viability (%), alamar blue” value in the series on Huh7.5 cells (5 μM) is 77%. In the series with Huh7.5 cells (10 μM), the “Cell Viability (%), alamar blue” value turned out to be 65%. Also, in the series on 2a HCV RNA replicon, the activity at 5 µM is 30% and the activity at 10 µM was found to be 15%. Besides, the “1b assay IC50” value in the series on HCV 1b RNA replicon was “inactive”.

Consider `CC(C)CN(C)c1nc(N)c(C(=O)NCc2ccncc2)nc1Cl.O=C(O)C(F)(F)F` [ID 342, 3-amino-6-chloro-5-(isobutyl(methyl)amino)-N-(pyridin-4-ylmethyl)pyrazine-2-carboxamide 2,2,2-trifluoroacetate], for which the “Cell Viability (%), alamar blue” value is on record as 69% in the series with Huh7.5 cells (5 μM) and 56% in the series with Huh7.5 cells (10 μM). Besides, the activity at 5 µM in the series with 2a HCV RNA replicon was determined as 22%. Besides, the activity at 10 µM in the series with 2a HCV RNA replicon came out at 12%. For the same compound, the “1b assay IC50” value in the series on HCV 1b RNA replicon was “inactive”.

Turning to `Cc1ccncc1NC(=O)c1nc(Cl)c(N2CCCCC2)nc1N` [ID 415, 3-amino-6-chloro-N-(4-methylpyridin-3-yl)-5-(piperidin-1-yl)pyrazine-2-carboxamide 2,2,2-trifluoroacetate], the “Cell Viability (%), alamar blue” value with Huh7.5 cells (5 μM) came to 71%. The “Cell Viability (%), alamar blue” value in the series with Huh7.5 cells (10 μM) was determined as 65%. Besides, in the series with 2a HCV RNA replicon, the activity at 5 µM is 27% and the activity at 10 µM turned out to be 10%. Moreover, the “1b assay IC50” value with HCV 1b RNA replicon was “inactive”.

Regarding `Cc1ccncc1NC(=O)c1nc(Cl)c(NCC(C)C)nc1N` [ID 464, 3-amino-6-chloro-5-(isobutylamino)-N-(4-methylpyridin-3-yl)pyrazine-2-carboxamide 2,2,2-trifluoroacetate], the IC50 at hERG was > 10 µM. In the series with Huh7.5 cells (5 μM), the “Cell Viability (%), alamar blue” value is 95%. Besides, the “Cell Viability (%), alamar blue” value in the series with Huh7.5 cells (10 μM) is 85%. In the series on 2a HCV RNA replicon, the activity at 5 µM was found to be 64% and the activity at 10 µM came to 44%.

In the case of `Cc1ccncc1NC(=O)c1nc(Cl)c(N(C)c2ccccc2)nc1N` [ID 465, 3-amino-6-chloro-5-(methyl(phenyl)amino)-N-(4-methylpyridin-3-yl)pyrazine-2-carboxamide 2,2,2-trifluoroacetate], the IC50 on hERG is > 10 µM. Besides, in the series with Huh7.5 cells (5 μM), the “Cell Viability (%), alamar blue” value is listed as 89%. Besides, the “Cell Viability (%), alamar blue” value in the series with Huh7.5 cells (10 μM) was 78%. In addition, in the series on 2a HCV RNA replicon, the activity at 5 µM is 60% and the activity at 10 µM worked out at 31%.
